BindingDB's records for doi:10.1021/jm00034a005 (University of Paris, 1994)

target: Neprilysin; assay: In vivo inhibitory potency against neutral endopeptidase by displacement of [3H]HACBOGly binding in mouse kidney

**Q.** How did the IC50 turn out when CCC(NC(=O)C(CS)C(C)c1ccccc1)C(=O)O (stereo not given) [2-(2-Mercaptomethyl-3-phenyl-butyrylamino)-butyric acid] was run?
**A.** The IC50 was 6.3 nM.

**Q.** How did the IC50 turn out when CC(NC(=O)C(CS)C(C)c1ccc2c(c1)OCO2)C(=O)O (stereo not given) [2-(3-Benzo[1,3]dioxol-5-yl-2-mercaptomethyl-butyrylamino)-propionic acid] was run?
**A.** Its IC50 is 2 nM.

**Q.** With CC(c1ccc(F)c(F)c1)C(CS)C(=O)NC(Cc1ccc(O)cc1)C(=O)O (stereo not given) [2-[3-(3,4-Difluoro-phenyl)-2-mercaptomethyl-butyrylamino]-3-(4-hydroxy-phenyl)-propionic acid] as the molecule, how does the IC50 read?
**A.** Its IC50 is 5.2 nM.

**Q.** CC(NC(=O)C(CS)C(C)c1ccc(F)c(F)c1)C(=O)O (stereo not given) [2-[3-(3,4-Difluoro-phenyl)-2-mercaptomethyl-butyrylamino]-propionic acid] was tested. Which IC50 did it give?
**A.** The IC50 was 3.5 nM.

**Q.** For CC(c1ccc(N)cc1)C(CS)C(=O)NC(Cc1ccc(O)cc1)C(=O)O (stereo not given) [2-[3-(4-Amino-phenyl)-2-mercaptomethyl-butyrylamino]-3-(4-hydroxy-phenyl)-propionic acid], which IC50 is on record?
**A.** The IC50 was 16 nM.

**Q.** CC(c1ccc(F)cc1)C(CS)C(=O)NC(Cc1ccc(O)cc1)C(=O)O (stereo not given) [2-[3-(4-Fluoro-phenyl)-2-mercaptomethyl-butyrylamino]-3-(4-hydroxy-phenyl)-propionic acid] was tested. Which IC50 did it give?
**A.** Its IC50 is 5.9 nM.

**Q.** With CC(NC(=O)C(CS)C(C)c1ccc(F)cc1)C(=O)O (stereo not given) [2-[3-(4-Fluoro-phenyl)-2-mercaptomethyl-butyrylamino]-propionic acid] as the molecule, how does the IC50 read?
**A.** Its IC50 is 2 nM.

**Q.** For O=C(NC(Cc1ccc(O)cc1)C(=O)O)C(CS)Cc1ccccc1 (stereo not given) [3-(4-Hydroxy-phenyl)-2-(2-mercaptomethyl-3-phenyl-propionylamino)-propionic acid], which IC50 is on record?
**A.** The IC50 was 2 nM.

**Q.** Which IC50 does the source give for CC(c1ccc(O)cc1)C(CS)C(=O)NC(Cc1ccc(O)cc1)C(=O)O (stereo not given) [3-(4-Hydroxy-phenyl)-2-[3-(4-hydroxy-phenyl)-2-mercaptomethyl-butyrylamino]-propionic acid] here?
**A.** The IC50 was 9 nM.

**Q.** CC(c1ccccc1)C(CS)C(=O)NC(COCc1ccccc1)C(=O)O (stereo not given) [3-Benzyloxy-2-(2-mercaptomethyl-3-phenyl-butyrylamino)-propionic acid] was tested. Which IC50 did it give?
**A.** The IC50 was 4 nM.
